Values joined by “and” are separate entries in the source; they are usually repeats but may differ in a detail not shown here. Equal values may be shown once. Read-outs that look alike come from different tables or passages of the source.
How the values were obtained:
Type in all cases: biochemical
[1] = biological target: T1, SHP-1 (Homo sapiens, UniProt P29350); assay: PTP inhibition assay (pNPP hydrolysis), catalytic domain of SHP-1, SHP-1(ΔSH2)
T1 construct: The catalytic domain of SHP-1, SHP-1(ΔSH2), was purified from a recombinant Escherichia coli strain; made in house; host or cells: Escherichia coli
Method: (§1) PTP Inhibition Assays. Stock solutions of inhibitors were prepared in dimethyl sulfoxide (DMSO) and their concentrations were calculated from the known inhibitor masses and solvent volumes. A typical reaction (total volume 1 mL) contained 50 mM HEPES (pH 7.4), 1 mM EDTA, 1 mM tris(carboxyethyl)phosphine (TCEP), 50 mM NaCl, 5% (v/v) DMSO, 0.1-0.2 μM PTP, and 0-2000 μM inhibitor. After incubation of the enzyme with the inhibitor for 1 h at room temperature, the reaction was initiated by the addition of 1.0 mM p-nitrophenyl phosphate (pNPP). The reaction progress was monitored at 405 nm on a Perkin-Elmer UV-Vis spectrophotometer. The IC50 values were determined by plotting the remaining activity as a function of inhibitor concentration, and the K1* values were obtained by fitting the data to the Michaelis-Menten equation. To determine the K1 value, the reaction was initiated by addition of enzyme (0.2 μM) into the above reaction mixture, which also contained 1.0 mM pNPP. The reaction was monitored continuously on the UV-Vis spectrophotometer and the initial reaction rates (<15 s) were fitted to the Michaelis-Menten equation.

[2] = biological target: T2, PTP1B (Homo sapiens, UniProt P18031); assay: PTP inhibition assay (pNPP hydrolysis), PTP1B
T2 construct: made in house; host or cells: Escherichia coli
T2 sequence (P18031 1-435): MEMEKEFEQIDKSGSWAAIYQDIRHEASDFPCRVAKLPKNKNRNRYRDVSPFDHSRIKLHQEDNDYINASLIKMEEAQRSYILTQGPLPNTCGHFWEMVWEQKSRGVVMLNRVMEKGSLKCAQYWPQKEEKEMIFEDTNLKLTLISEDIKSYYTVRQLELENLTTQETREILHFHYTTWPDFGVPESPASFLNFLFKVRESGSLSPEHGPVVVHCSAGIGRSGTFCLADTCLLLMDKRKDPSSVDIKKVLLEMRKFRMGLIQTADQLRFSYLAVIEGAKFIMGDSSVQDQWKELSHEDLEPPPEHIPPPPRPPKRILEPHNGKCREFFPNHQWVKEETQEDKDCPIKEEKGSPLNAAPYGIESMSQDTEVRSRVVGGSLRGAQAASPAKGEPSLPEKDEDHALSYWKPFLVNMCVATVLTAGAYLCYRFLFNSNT
Method: as §1
To determine the rate constant κ6, the enzyme (1.0 μM) was incubated with 50-100 μM inhibitor in 100 μL of the above reaction buffer for 3 h at room temperature. The mixture was rapidly diluted into 900 μL of the same reaction buffer containing 1.0 mM pNPP (without inhibitor). Reactivation of PTP activity was monitored at 405 nm and the progress curves were fit to the equation
where νs is the final steady-state velocity. The rate constant κ5 was calculated using the equation
Inactivation of Inhibitor Cinn-GEE by Cysteamine. Cinn-GEE (1 mM) was incubated with 100 mM cysteamine hydrochloride (which had been neutralized by the addition of 1.0 equivalent of NaOH) in 100 μL of a 97:3 DMSO/H2O mixture for 24 h. The treated inhibitor was then used in inhibition assays as described above. As a control, inhibition assay also performed with the same amount of cysteamine hydrochloride/NaOH solution.

[3] = biological target: T3, VHR (Homo sapiens, UniProt P51452); assay: PTP inhibition assay (pNPP hydrolysis), dual-specificity phosphatase VHR
T3 construct: made in house; host or cells: Escherichia coli
Method: as §1

[4] = 1 h preincubation with inhibitor, 1.0 mM pNPP, pH 7.4
[5] = slow-binding inhibition, 1 h preincubation, 1.0 mM pNPP, read-out: KI* (overall equilibrium inhibition constant)

T3 sequence (P51452 whole entry, species assumed): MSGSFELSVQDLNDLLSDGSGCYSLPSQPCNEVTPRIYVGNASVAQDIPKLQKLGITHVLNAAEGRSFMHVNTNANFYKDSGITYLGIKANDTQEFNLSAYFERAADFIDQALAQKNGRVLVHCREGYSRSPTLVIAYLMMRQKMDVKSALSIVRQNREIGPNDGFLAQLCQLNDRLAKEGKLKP
T1 sequence (P29350 214-595): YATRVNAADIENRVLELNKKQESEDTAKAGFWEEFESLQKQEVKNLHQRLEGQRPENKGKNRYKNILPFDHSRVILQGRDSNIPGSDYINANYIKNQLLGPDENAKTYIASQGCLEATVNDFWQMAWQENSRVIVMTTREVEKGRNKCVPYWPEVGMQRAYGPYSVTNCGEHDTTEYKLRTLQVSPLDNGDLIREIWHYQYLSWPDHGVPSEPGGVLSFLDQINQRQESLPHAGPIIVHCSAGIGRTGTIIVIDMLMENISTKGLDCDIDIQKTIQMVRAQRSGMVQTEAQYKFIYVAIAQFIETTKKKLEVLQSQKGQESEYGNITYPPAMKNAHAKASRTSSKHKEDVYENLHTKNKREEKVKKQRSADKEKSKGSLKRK

Structure (SMILES): O=Cc1ccccc1 [Compound 1, Benzaldehyde, reference compound]
- Inhibitory activity (in words) [1]: least active
- Inhibitory activity (in words) [2]: least active
- Inhibitory activity (in words) [3]: least active

Structure (SMILES): O=CC=Cc1ccc(C(=O)O)cc1 [Compound 3, 4-(3-Oxo-1-propenyl)benzoic acid]
- IC50 [1, 4]: 230 µM
- IC50 [2, 4]: 970 µM
- IC50 [3, 4]: > 2000 µM
- Inhibition against VHR ([3]; up to 2 mM): no significant inhibition

Structure (SMILES): NC(=O)C(CCC(=O)O)NC(=O)C(CCC(=O)O)NC(=O)CNC(=O)c1ccc(C=CC=O)cc1 (stereo not drawn) [Compound 5, N-[4-(3-Oxo-1-propenyl)benzoyl]-Gly-Glu-Glu-NH2]
- Ki [1, 5]: 10.7 µM
- κ6, rate for reactivation of PTP1B ([2]; E·I* complex preformed 3 h, diluted 10-fold into 1.0 mM pNPP): 0.56 min⁻¹
- κ5, rate for conversion of noncovalent E·I complex to covalent complex ([2]; calculated from K1*=K1κ6/(κ5+κ6)): 56 min⁻¹
- Ki ([2]; initial reaction rates (<15 s), reaction initiated by enzyme, read-out: K1, equilibrium inhibition constant for the initial complex E·I): 550 µM
- Inhibitory activity against PTP1B after treatment of inhibitor with cysteamine ([2]; prior treatment with excess cysteamine): abolished
- Ki [2, 5]: 5.4 µM and 5.42 µM
- Ki [3, 5]: 288 µM
